Measured values as given in patent publication US20010027248A1, “Novel receptor” (SmithKline Beecham p.l.c., priority 1994, published 2001).

Biological target: novel receptor (rat forebrain tissue)
Assay: Radioligand saturation binding to the novel receptor in rat forebrain tissue homogenate
Details: calculated from specific binding over a range of radioligand concentrations, read-out: Kd (dissociation constant)
Protocol: Adult male Wistar rats were killed and brains removed by dissection. Whole forebrain tissue was dissected out and homogenised in a buffered aqueous medium. The homogenised tissue was washed by centrifugation and resuspended in the same buffer. After centrifugation the resuspended tissue was either used fresh or stored frozen for periods of up to 3 months or more before use.
Aliquot of tissue prepared as above at a concentration of 1-10 mg protein/ml were mixed with aliquots of [^3H]-compound A dissolved in buffered medium ([…] HEPES, pH7.4). The final concentration of [^3H] compound A in the mixture was in the range of 20-50 nM. The mixture was incubated at room temperature for about 1 hour. [^3H]-compound A bound to the tissue was then separated from unbound [^3H]-compound A by filtration. This filtration was through Whatman glass fibre filters (GF/B or GF/C). The filters were then washed rapidly with ice-cold buffered medium (50 mM HEPES, pH7.4). The amount of radioactivity bound to the tissue trapped on the filters was measured by addition of liquid scintillation cocktail filters followed by counting in a liquid scintillation counter. […]

| Compound | Kd [µM] |
| --- | --- |
| CC(=O)c1ccc2c(c1)[C@H](NC(=O)c1ccc(F)cc1)[C@@H](O)C(C)(C)O2 [compound A, trans-(+)-6-Acetyl-4S-(4-fluorobenzolamino)-3,4-dihydro-2,2-dimethyl-2H-1-benzopyran-3R-ol] | 0.04 |

System: novel receptor
Assay: Binding of known anticonvulsant compounds to the novel receptor
Details: not given
Text: Alternatively, the binding affinities of non-radio-labelled test compounds may be established by measuring the amount of displacement of a radio-labelled compound which is known to bind to the receptor such as compound (A) and (B) and other compounds mentioned or covered by the aforementioned patents or applications, using conventional techniques.

| Compound | binding to the novel receptor |
| --- | --- |
| CCC1(C)CC(=O)NC1=O (stereo not drawn) [ethosuximide] | do not bind |
| NC(=O)N1c2ccccc2C=Cc2ccccc21 [carbamazepine] | do not bind |
| O=C1NC(=O)C(c2ccccc2)(c2ccccc2)N1 [phenytoin] | do not bind |
| CCCC(C)C1(CC)C(=O)NC(=O)NC1=O (stereo not drawn) [pentobarbitone] | do not bind |
| C=CC(N)CCC(=O)O (stereo not drawn) [vigabatrin] | do not bind |
| Nc1nnc(-c2cccc(Cl)c2Cl)c(N)n1 [lamotrigine] | do not bind |
| NCC1(CC(=O)O)CCCCC1 [gabapentin] | do not bind |
| CN1C(=O)CN=C(c2ccccc2)c2cc(Cl)ccc21 [diazepam] | do not bind |
